Experimental data from patent US7662813B2, “Triazole compounds that modulate HSP90 activity” (Synta Pharmaceuticals Corp., priority 2005, dated 2010).

Legend:
c-kit [1] = assay: Western blot analysis of c-Kit in Kasumi-1 cells; assay type: cell-based
Procedure: The results of the FACS analysis were confirmed with Western blot analysis (see FIG. 2). […] In contrast, 17-AAG had no effect of c-Kit protein levels at either 100 nM or 400 nM.

c-kit [2] = assay: FACS-based c-kit degradation assay in Kasumi-1 cells; assay type: cell-based; conditions: about 18 h
Procedure: Leukemia cell line, Kasumi-1, was used for testing c-kit degradation induced by Hsp90 inhibitors of the invention. The cells (3×10^5 per well) were treated with 17AAG (0.5 μM) or Compound 11 (0.05 μM or 0.5 μM) for about 18 h. The cells were collected and centrifuged (SORVALL RT 6000D) at 1200 rpm for 5 min. The supernatants were discarded, and the cells were washed one time with 1×PBS. After centrifugation the cells were stained with FITC conjugated c-kit antibody (MBL International, Cat# K0105-4) in […] 1×PBS at 4° C. for 1 h. The samples were read and analyzed with FACSCalibur flow cytometer (Becton Dicknson).

Her2 = assay: Degradation of Her2 in BT-474 cells (Method 1, Western blot); assay type: cell-based, human; conditions: 0.5 μM, overnight
Procedure: Human high-Her2 breast carcinoma BT474 (HTB-20), SK-BR-3 (HTB-30) and MCF-7 breast carcinoma (HTB-22) from American Type Culture Collection, VA, USA were grown in Dulbecco's modified Eagle's medium with 4 mM L-glutamine and antibiotics (100 IU/ml penicillin and 100 ug/ml streptomycine; GibcoBRL). To obtain exponential cell growth, cells were trypsinized, counted and seeded at a cell density of 0.5×10^6 cells /ml regularly, every 3 days. All experiments were performed on day 1 after cell passage.
BT-474 cells are treated with 0.5 μM, 2 μM, or 5 μM of 17AAG (a positive control) or 0.5 μM, 2 μAM, or 5 μM of a compound of the invention overnight in DMEM medium. After treatment, each cytoplasmic sample is prepared from 1×10^6 cells by incubation of cell lysis buffer (#9803, cell Signaling Technology) on ice for 10 minutes. The resulting supernatant used as the cytosol fractions is dissolved with sample buffer for SDS-PAGE and run on a SDS-PAGE gel, blotted onto a nitrocellulose membrane by using semi-dry transfer. Non-specific binding to nitrocellulose is blocked with 5% skim milk in TBS with 0.5% Tween at room temperature for 1 hour, then probed with anti-Her2/ErB2 mAb (rabbit IgG, #2242, Cell Signaling) and anti-Tubulin (T9026, Sigmna) as housekeeping control protein. […]

| SMILES | Degradation of c-Kit (Western blot) (c-kit [1]; 100 nM) | Degradation of c-Kit (Western blot) (c-kit [1]; 400 nM) | c-kit degradation (FACS) (c-kit [2]; 0.05 μM) | c-kit degradation (FACS) (c-kit [2]; 0.5 μM) | Degradation of Her2 (Her2) |
| --- | --- | --- | --- | --- | --- |
| CCN(C)c1cc(-n2c(S)nnc2-c2cc(C(C)C)c(O)cc2O)ccc1OC [Compound 12, 4-(4-(3-(N-methyl-N-ethylamino)-4-methoxy-phenyl)-5-mercapto-4H-1,2,4-triazol-3-yl)-6-isopropylbenzene-1,3-diol] | induced the degradation of c-Kit | induced the degradation of c-Kit | – | – | – |
| CCCN(C)c1cc(-n2c(S)nnc2-c2cc(C(C)C)c(O)cc2O)ccc1OC [Compound 11, 4-(4-(3-(N-methyl-N-propylamino)-4-methoxyphenyl)-5-mercapto-4H-1,2,4-triazol-3-yl)-6-isopropylbenzene-1,3-diol] | induced the degradation of c-Kit | induced the degradation of c-Kit | induced c-kit degradation | induced c-kit degradation | – |
| C=CCNC1=C2C[C@@H](C)C[C@H](OC)[C@H](O)[C@@H](C)/C=C(\C)[C@H](OC(N)=O)[C@@H](OC)/C=C\C=C(/C)C(=O)NC(=CC1=O)C2=O [Compound 17AAG, reference compound] | no effect | no effect | – | could not induce c-kit degradation | partial degradation of Her2 |
